In patent publication US4501733A, “Polypeptides, a process for their preparation, their use, and a _process for the purification of polypeptides” (Ferring Arzneimittel GmbH, priority 1982, dated 1985):
Square brackets hold non-standard residues; d marks the D form. Peptide text beside a SMILES is read from it. * marks the point of attachment. Propionyl = CCC(=O)*

Columns and labels:
ileum from guinea pigs = experiment: Inhibition of SP- or Nle-SP-induced contraction of isolated guinea pig ileum (organ bath, isotonic measurement); conditions: for relative antagonistic potency (comparison of the antagonists): agonist 10^-8 M; for relative antagonistic potency (comparison of the antagonists) / Percentage inhibiting action: antagonist 10^-5 M; for Percentage inhibiting action: agonist SP or Nle-SP 10^-8 M, guinea pig ileum contraction; for substance P-antagonizing action: antagonist used in a concentration of 10^-5 M, agonist SP or Nle-SP
From the text: The ileum from guinea pigs was cut out after the animals had been sacrificed, was substantially freed from mesenteria by pulling at the caudal end and was freed from digestion products with Tyrode's solution. About 25 cm were discarded from the caudal end, and several sections of intestine 4 cm long were then removed and stored in Tyrode's solution. The Tyrode's solution was gassed with carbogen (95% of O2 and 5% of CO2). The Tyrode's solution contained the following substances per liter: 8 g of NaCl; […]; 1.3 g of CaCl2.2H2 O; 2.1 g of MgCl2.6H2 O; […]; 0.58 g of NaH2 PO4.1H2 O; and 11 g of D(+)-glucose.
The Tyrode's solution was thermostatically controlled at 38° C. in an organ bath. Each preparation retained its complete contractility for 4 to 7 hours. 4 cm sections of intestine were tied on both sides and suspended in the organ bath. The contractions of the preparation were recorded under isotonic measurement conditions via a lever on a Kymograph drum. The writing was done by a felt-tip pen arranged as a lateral pen. The load arm was 225 mm and the power arm 20 mm long. The pre-load was about 0.3 g and the paper speed was 5 mm/minute. The organ bath contained 10 ml.
As a rule, the test substances were added in volumes of 2 to 100 μl, and were distributed instantaneously in the organ bath by the gassing. All the test substances added were dissolved in Tyrode's solution or diluted with Tyrode's solution from a stock solution.
Test substances: substance P (Serva) or norleucine-SP (Ferring, Kiel) were used as agonists, in doses of between 10^-9 and 10^-7 M. The following compounds were tested as potential antagonists:
In the standard test, SP or Nle-SP was applied in a concentration of between 10^-9 and 10^-7 M, and was washed out after about 2 minutes. After a latency period of a further 3 minutes, the potential antagonist was applied in a concentration of 3×10^-6, 10^-5 or 3.3×10^-5 M, directly followed by a further dose of SP (Nle-SP). After renewed washing out and a waiting time of 3 minutes, SP (Nle-SP) was again applied in the same dose, in order to investigate whether the original contraction strength is reached.
The reduction in the relative contraction of the ileum preparations as a result of using SP analogs was regarded as a measure of the relative activity as antagonists.

ileum in guinea pigs = conditions: Folkers et al. 1981; Rosell et al. 1981; cited from earlier work
SP-induced salivation = conditions: Folkers et al. 1981; Rosell et al. 1981; cited from earlier work
vasodilation = conditions: Folkers et al. 1981; Rosell et al. 1981; cited from earlier work

| Molecule | relative antagonistic potency (comparison of the antagonists) (ileum from guinea pigs) | Percentage inhibiting action (ileum from guinea pigs) | substance P-antagonizing action (ileum from guinea pigs) | inhibition of the contraction of the ileum in guinea pigs caused by SP (ileum in guinea pigs) | inhibition of SP-induced salivation (SP-induced salivation) | inhibition of vasodilation caused by antidromic nerve stimulation and SP-induced vasodilation (vasodilation) |
| --- | --- | --- | --- | --- | --- | --- |
| CCC(=O)N[C@@H](CCC(N)=O)C(=O)N[C@H](Cc1c[nH]c2ccccc12)C(=O)N[C@@H](Cc1ccccc1)C(=O)N[C@H](Cc1c[nH]c2ccccc12)C(=O)N[C@@H](CC(C)C)C(=O)N[C@@H](CCSC)C(N)=O [compound 4, Propionyl-Gln-D-Trp-Phe-D-Trp-Leu-Met-NH2] (Propionyl-Q[dW]F[dW]LM-NH2) | lower but significant inhibiting action | 29.3 ± 9.5% | substance P-antagonizing action | – | – | – |
| CSCC[C@H](NC(=O)[C@H](CC(C)C)NC(=O)[C@@H](Cc1c[nH]c2ccccc12)NC(=O)[C@H](Cc1ccccc1)NC(=O)[C@@H](Cc1c[nH]c2ccccc12)NC(=O)[C@H](CCC(N)=O)NC(=O)[C@@H]1CCCN1)C(N)=O [compound 3, H-Pro-Gln-D-Trp-Phe-D-Trp-Leu-Met-NH2] (H-PQ[dW]F[dW]LM-NH2) | most powerful action | 69.5 ± 0.5% | substance P-antagonizing action | – | – | – |
| D-Pro^2, D-Phe^7 and D-Trp-^9 -SP | – | – | – | inhibit | inhibit | inhibit |
| CSCC[C@H](NC(=O)[C@H](CC(C)C)NC(=O)[C@@H](Cc1c[nH]c2ccccc12)NC(=O)[C@H](Cc1ccccc1)NC(=O)[C@@H](Cc1c[nH]c2ccccc12)NC(=O)[C@H](CCC(N)=O)NC(=O)[C@@H](N)CCCNC(=N)N)C(N)=O [compound 2, H-Arg-Gln-D-Trp-Phe-D-Trp-Leu-Met-NH2] (H-RQ[dW]F[dW]LM-NH2) | most powerful action | 68.1 ± 8% | substance P-antagonizing action | – | – | – |
